# Read-outs that look alike come from different tables or passages of the source.
# Tests used:
# [1] = target: T1, full-length beta-Catenin (Uniprot ID P35222) (Homo sapiens, UniProt P35222); test: Fluorescence polarization IC50 (beta-catenin / 5FAM-TCF4 10-53 competition); format: binding; conditions: fluorescence polarization; read-out: beta-Catenin FP IC50
# T1 construct: 10 nM full-length beta-Catenin (Uniprot ID P35222)
# T1 sequence (P35222 1-781): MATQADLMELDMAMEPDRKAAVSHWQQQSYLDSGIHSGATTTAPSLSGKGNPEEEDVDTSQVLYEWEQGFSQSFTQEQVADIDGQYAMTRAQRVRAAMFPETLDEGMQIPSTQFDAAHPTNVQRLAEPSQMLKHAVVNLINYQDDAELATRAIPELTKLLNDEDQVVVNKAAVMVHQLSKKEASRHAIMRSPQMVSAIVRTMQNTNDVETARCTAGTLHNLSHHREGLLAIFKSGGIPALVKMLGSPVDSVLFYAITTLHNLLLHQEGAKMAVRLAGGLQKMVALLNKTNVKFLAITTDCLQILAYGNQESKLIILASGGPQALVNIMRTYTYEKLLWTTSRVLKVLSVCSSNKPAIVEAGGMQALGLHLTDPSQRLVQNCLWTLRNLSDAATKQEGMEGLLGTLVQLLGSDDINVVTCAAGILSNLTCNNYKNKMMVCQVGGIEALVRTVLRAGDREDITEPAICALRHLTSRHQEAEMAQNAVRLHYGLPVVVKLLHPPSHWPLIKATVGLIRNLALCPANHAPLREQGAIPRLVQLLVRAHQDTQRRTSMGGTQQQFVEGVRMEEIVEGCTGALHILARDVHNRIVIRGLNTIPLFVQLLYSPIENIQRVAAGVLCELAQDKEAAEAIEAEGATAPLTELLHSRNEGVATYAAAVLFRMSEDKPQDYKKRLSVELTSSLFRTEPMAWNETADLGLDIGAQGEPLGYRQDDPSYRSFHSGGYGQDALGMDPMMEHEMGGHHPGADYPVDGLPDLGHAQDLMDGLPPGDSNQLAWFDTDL
# Solubility in PBS = format: physicochemical
# Summary of the method: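 Steps: ultracentrifuge the peptide PBS solution, inject the supernatant on HPLC, inject a 50 μM peptide DMSO solution as reference, then calculate solubility as area ratio (PBS/DMSO) × 50 uM.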
IC50 [1],Solubility (Solubility in PBS),Solubility (Solubility in PBS; Solubility (uM)),Compound
0.0665 µM,10 µM,–,"CC(=O)N1CCC[C@]12CC=CCCCC1(CCCC=CCCCCCC[C@@](C)(C(=O)N[C@@H](Cc3ccccc3Cl)C(=O)N[C@@H](Cc3csc4ccccc34)C(=O)N[C@@H](Cc3c[nH]cn3)C(N)=O)NC(=O)[C@H](CC(C)C)NC(=O)[C@H](Cc3ccccc3)NC(=O)[C@H](C)NC(=O)[C@H](C)NC(=O)[C@H](CC(=O)O)NC(=O)[C@H](CC(=O)O)NC1=O)NC(=O)[C@H](CC(C)(C)C)NC(=O)[C@H](CC(=O)O)NC2=O (stereo partly drawn) [I-1194, Ac-PL3-Asp-Npg-B5-Asp-Asp-Ala-Ala-Phe-Leu-S8-2C1F-BztA-His-NH2]"
0.085 µM,10 µM,–,"CC(=O)N1CCC[C@]12CC=CCCCC1(CCCC=CCCCCCC[C@@](C)(C(=O)N[C@@H](Cc3ccccc3Cl)C(=O)N[C@@H](Cc3csc4ccccc34)C(=O)N[C@@H](CCO)C(N)=O)NC(=O)[C@H](CC(C)C)NC(=O)[C@H](Cc3ccccc3)NC(=O)[C@H](C)NC(=O)[C@H](C)NC(=O)[C@H](CC(=O)O)NC(=O)[C@H](CC(=O)O)NC1=O)NC(=O)[C@H](CC(C)(C)C)NC(=O)[C@H](CC(=O)O)NC2=O (stereo partly drawn) [I-1196, Ac-PL3-Asp-Npg-B5-Asp-Asp-Ala-Ala-Phe-Leu-S8-2C1F-BztA-Hse-NH2]"
0.065 µM,–,47 µM,"CC(=O)N1CCC[C@]12CC=CCCCC1(CCCC=CCCCCCC[C@@](C)(C(=O)N[C@@H](Cc3ccccc3Cl)C(=O)N[C@@H](Cc3csc4ccccc34)C(=O)N[C@H](CCC(N)=O)C(N)=O)NC(=O)[C@H](CC(C)C)NC(=O)[C@H](Cc3ccccc3)NC(=O)[C@H](C)NC(=O)[C@H](C)NC(=O)[C@H](CC(=O)O)NC(=O)[C@H](CC(=O)O)NC1=O)NC(=O)[C@H](CC(C)(C)C)NC(=O)[C@H](CC(=O)O)NC2=O (stereo partly drawn) [I-1198, Ac-PL3-Asp-Npg-B5-Asp-Asp-Ala-Ala-Phe-Leu-S8-2C1F-BztA-dGln-NH2]"
0.0445 µM,–,19 µM,"CC(=O)N1CCC[C@]12CC=CCCCC1(CCCC=CCCCCCC[C@@](C)(C(=O)N[C@@H](Cc3ccsc3)C(=O)N[C@@H](Cc3csc4ccccc34)C(=O)N[C@H](CCC(N)=O)C(N)=O)NC(=O)[C@H](CC(C)C)NC(=O)[C@H](Cc3ccccc3)NC(=O)[C@H](C)NC(=O)[C@H](C)NC(=O)[C@H](CC(=O)O)NC(=O)[C@H](CC(=O)O)NC1=O)NC(=O)[C@H](CC(C)(C)C)NC(=O)[C@H](CC(=O)O)NC2=O (stereo partly drawn) [I-1199, Ac-PL3-Asp-Npg-B5-Asp-Asp-Ala-Ala-Phe-Leu-S8-3Thi-BztA-dGln-NH2]"
0.081 µM,50 µM,–,"CC(=O)N1CCC[C@]12CC=CCCCC1(CCCC=CCCCOC(=O)N3CC[C@@](C(=O)N[C@@H](Cc4cccc(C#N)c4)C(=O)N[C@@H](Cc4csc5ccccc45)C(=O)N[C@@H](CCC(N)=O)C(N)=O)(C3)NC(=O)[C@H](CC(C)C)NC(=O)[C@H](Cc3ccccc3)NC(=O)[C@H](C)NC(=O)[C@H](C)NC(=O)[C@H](CC(=O)O)NC(=O)[C@H](CC(=O)O)NC1=O)NC(=O)[C@H](CC(C)(C)C)NC(=O)[C@H](CC(=O)O)NC2=O (stereo partly drawn) [I-1204, Ac-PL3-Asp-Npg-B5-Asp-Asp-Ala-Ala-Phe-Leu-PyrS2-3CNF-BztA-Gln-NH2]"
0.987 µM,50 µM,–,"CC(=O)N1CCC[C@]12CC=CCCCC1(CCCC=CCCCOC(=O)N3CC[C@@](C(=O)N[C@@H](Cc4ccc(C#N)cc4)C(=O)N[C@@H](Cc4csc5ccccc45)C(=O)N[C@@H](CCC(N)=O)C(N)=O)(C3)NC(=O)[C@H](CC(C)C)NC(=O)[C@H](Cc3ccccc3)NC(=O)[C@H](C)NC(=O)[C@H](C)NC(=O)[C@H](CC(=O)O)NC(=O)[C@H](CC(=O)O)NC1=O)NC(=O)[C@H](CC(C)(C)C)NC(=O)[C@H](CC(=O)O)NC2=O (stereo partly drawn) [I-1205, Ac-PL3-Asp-Npg-B5-Asp-Asp-Ala-Ala-Phe-Leu-PyrS2-4CNF-BztA-Gln-NH2]"
0.349 µM,–,44 µM,"CC(=O)N1CCC[C@]12CC=CCCCC1(CCCC=CCCCOC(=O)N3CC[C@@](C(=O)N[C@@H](Cc4ccsc4)C(=O)N[C@@H](Cc4csc5ccccc45)C(=O)N[C@@H](CCC(N)=O)C(N)=O)(C3)NC(=O)[C@H](CC(N)=O)NC(=O)[C@H](Cc3ccccc3)NC(=O)[C@H](C)NC(=O)[C@H](C)NC(=O)[C@H](CC(=O)O)NC(=O)[C@H](CO)NC1=O)NC(=O)[C@H](CC(C)(C)C)NC(=O)[C@H](CC(=O)O)NC2=O (stereo partly drawn) [I-1208, Ac-PL3-Asp-Npg-B5-Ser-Asp-Ala-Ala-Phe-Asn-PyrS2-3Thi-BztA-Gln-NH2]"
0.479 µM,–,16 µM,"CC(=O)N1CCC[C@]12CC=CCCCC1(CCCC=CCCCOC(=O)N3CC[C@@](C(=O)N[C@@H](Cc4ccsc4)C(=O)N[C@@H](Cc4csc5ccccc45)C(=O)N[C@@H](CCC(N)=O)C(N)=O)(C3)NC(=O)[C@H](CC(C)C)NC(=O)[C@H](Cc3ccccc3)NC(=O)[C@H](C)NC(=O)[C@H](C)NC(=O)[C@H](CC(=O)O)NC(=O)[C@H](CO)NC1=O)NC(=O)[C@H](CC(C)(C)C)NC(=O)[C@H](CC(=O)O)NC2=O (stereo partly drawn) [I-1209, Ac-PL3-Asp-Npg-B5-Ser-Asp-Ala-Ala-Phe-Leu-PyrS2-3Thi-BztA-Gln-NH2]"
0.056 µM,50 µM,–,"CC(=O)N1CCC[C@]12CC=CCCCC1(CCCC=CCCCOC(=O)N3CC[C@@](C(=O)N[C@@H](Cc4ccsc4)C(=O)N[C@@H](Cc4csc5ccccc45)C(=O)N[C@@H](CCC(N)=O)C(N)=O)(C3)NC(=O)[C@H](CC(N)=O)NC(=O)[C@H](Cc3ccccc3)NC(=O)[C@H](C)NC(=O)[C@H](C)NC(=O)[C@H](CC(=O)O)NC(=O)[C@H](CCC(N)=O)NC1=O)NC(=O)[C@H](CC(C)(C)C)NC(=O)[C@H](CC(=O)O)NC2=O (stereo partly drawn) [I-1210, Ac-PL3-Asp-Npg-B5-Gln-Asp-Ala-Ala-Phe-Asn-PyrS2-3Thi-BztA-Gln-NH2]"
0.115 µM,–,11 µM,"CC(=O)N1CCC[C@]12CC=CCCCC1(CCCC=CCCCOC(=O)N3CC[C@@](C(=O)N[C@@H](Cc4ccsc4)C(=O)N[C@@H](Cc4csc5ccccc45)C(=O)N[C@@H](CCC(N)=O)C(N)=O)(C3)NC(=O)[C@H](CC(C)C)NC(=O)[C@H](Cc3ccccc3)NC(=O)[C@H](C)NC(=O)[C@H](C)NC(=O)[C@H](CC(=O)O)NC(=O)[C@H](CCC(N)=O)NC1=O)NC(=O)[C@H](CC(C)(C)C)NC(=O)[C@H](CC(=O)O)NC2=O (stereo partly drawn) [I-1211, Ac-PL3-Asp-Npg-B5-Gln-Asp-Ala-Ala-Phe-Leu-PyrS2-3Thi-BztA-Gln-NH2]"
0.116 µM,50 µM,–,"CC(=O)N1CCC[C@]12CC=CCCCC1(CCCC=CCCCOC(=O)N3CC[C@@](C(=O)N[C@@H](Cc4ccsc4)C(=O)N[C@@H](Cc4csc5ccccc45)C(=O)N[C@@H](CCC(N)=O)C(N)=O)(C3)NC(=O)[C@H](CC(N)=O)NC(=O)[C@H](Cc3ccccc3)NC(=O)[C@H](C)NC(=O)[C@H](C)NC(=O)[C@H](CC(=O)O)NC(=O)[C@H](CCO)NC1=O)NC(=O)[C@H](CC(C)(C)C)NC(=O)[C@H](CC(=O)O)NC2=O (stereo partly drawn) [I-1214, Ac-PL3-Asp-Npg-B5-Hse-Asp-Ala-Ala-Phe-Asn-PyrS2-3Thi-BztA-Gln-NH2]"
0.216 µM,10 µM,–,"CC(=O)N1CCC[C@]12CC=CCCCC1(CCCC=CCCCOC(=O)N3CC[C@@](C(=O)N[C@@H](Cc4ccsc4)C(=O)N[C@@H](Cc4csc5ccccc45)C(=O)N[C@@H](CCC(N)=O)C(N)=O)(C3)NC(=O)[C@H](CC(C)C)NC(=O)[C@H](Cc3ccccc3)NC(=O)[C@H](C)NC(=O)[C@H](C)NC(=O)[C@H](CC(=O)O)NC(=O)[C@H](CCO)NC1=O)NC(=O)[C@H](CC(C)(C)C)NC(=O)[C@H](CC(=O)O)NC2=O (stereo partly drawn) [I-1215, Ac-PL3-Asp-Npg-B5-Hse-Asp-Ala-Ala-Phe-Leu-PyrS2-3Thi-BztA-Gln-NH2]"

Compound,IC50 [1],Solubility (Solubility in PBS),Solubility (Solubility in PBS; Solubility (uM))
"CC(=O)N1CCC[C@]12CC=CCCCC1(CCCC=CCCCCCC[C@@](C)(C(=O)N[C@@H](Cc3ccsc3)C(=O)N[C@@H](Cc3csc4ccccc34)C(=O)N[C@@H](Cc3c[nH]nn3)C(N)=O)NC(=O)[C@H](CC(C)C)NC(=O)[C@H](Cc3ccccc3)NC(=O)[C@H](C)NC(=O)[C@H](C)NC(=O)[C@H](CC(=O)O)NC(=O)[C@H](CC(=O)O)NC1=O)NC(=O)[C@H](CC(C)(C)C)NC(=O)[C@H](CC(=O)O)NC2=O (stereo partly drawn) [I-1193, Ac-PL3-Asp-Npg-B5-Asp-Asp-Ala-Ala-Phe-Leu-S8-3Thi-BztA-4TriA-NH2]",0.0785 µM,10 µM,–
"CC(=O)N1CCC[C@]12CC=CCCCC1(CCCC=CCCCCCC[C@@](C)(C(=O)N[C@@H](Cc3ccsc3)C(=O)N[C@@H](Cc3csc4ccccc34)C(=O)N[C@@H](CCO)C(N)=O)NC(=O)[C@H](CC(C)C)NC(=O)[C@H](Cc3ccccc3)NC(=O)[C@H](C)NC(=O)[C@H](C)NC(=O)[C@H](CC(=O)O)NC(=O)[C@H](CC(=O)O)NC1=O)NC(=O)[C@H](CC(C)(C)C)NC(=O)[C@H](CC(=O)O)NC2=O (stereo partly drawn) [I-1197, Ac-PL3-Asp-Npg-B5-Asp-Asp-Ala-Ala-Phe-Leu-S8-3Thi-BztA-Hse-NH2]",0.044 µM,10 µM,–

# Source: patent publication US20240116985A1, “STAPLED PEPTIDES AND METHODS THEREOF” (priority 2020, published 2024)
